Experimental data published in BindingDB's records for doi:10.1016/j.ejmech.2016.03.038 (Glaxosmithkline, 2016).

Experiments:
[1] = Inhibition of pseudotype HIV1 integrase strand transfer activity assessed as reduction in viral replication in HIV1 infected human CIP4 cells after 2 days by luciferase reporter gene assay
[2] = Inhibition of pseudotype HIV1 integrase strand transfer activity assessed as reduction in viral replication in HIV1 infected human CIP4 cells after 2 days in presence of 40% human serum albumin by luciferase reporter gene assay

Structure (SMILES)	IC50 [1]	IC50 [2]
O=C(NCc1ccc(F)cc1)c1cn2c(c(O)c1=O)C(=O)N1CCCO[C@H]1C2	2 nM	
O=C1c2c(cc3cc(Cc4cccc(Cl)c4F)cnc3c2O)CN2CCCN12	16 nM	136 nM
N#Cc1c2c(c(O)c3ncc(Cc4cccc(Cl)c4F)cc13)C(=O)N1CCCN1C2	2.2 nM	415 nM
N#Cc1c2c(c(O)c3ncc(Cc4cccc(Cl)c4F)cc13)C(=O)N1CCC[C@@H]1C2	7 nM	4540 nM
N#Cc1c2c(c(O)c3ncc(Cc4cccc(Cl)c4F)cc13)C(=O)N1CCC[C@H]1C2	14 nM	66 nM
N#Cc1c2c(c(O)c3ncc(Cc4cccc(Cl)c4F)cc13)C(=O)N1CCCC[C@H]21	15 nM	457 nM
N#Cc1c2c(c(O)c3ncc(Cc4cccc(Cl)c4F)cc13)C(=O)N1CCCC[C@@H]21	18 nM	1280 nM
N#Cc1c2c(c(O)c3ncc(Cc4cccc(Cl)c4F)cc13)C(=O)N1CCC[C@H]21	5 nM	294 nM
N#Cc1c2c(c(O)c3ncc(Cc4cccc(Cl)c4F)cc13)C(=O)N1CCC[C@@H]21	10 nM	3320 nM
NC(=O)c1c2c(c(O)c3ncc(Cc4cccc(Cl)c4F)cc13)C(=O)N1CCC[C@@H]1C2	8 nM	30 nM
NC(=O)c1c2c(c(O)c3ncc(Cc4cccc(Cl)c4F)cc13)C(=O)N1CCC[C@H]1C2	3 nM	15 nM
NC(=O)c1c2c(c(O)c3ncc(Cc4cccc(Cl)c4F)cc13)C(=O)N1CCCC[C@H]21	0.7 nM	1 nM
NC(=O)c1c2c(c(O)c3ncc(Cc4cccc(Cl)c4F)cc13)C(=O)N1CCCC[C@@H]21	0.6 nM	2 nM
Cn1c(=O)c(C(=O)NCCO)c(O)c2ncc(Cc3ccc(F)cc3)cc21 [GSK364735]	3 nM	
